Reference: patent US4060652A (priority 1976, dated 1977)
Entries after “also recorded” stand apart in the source; their conditions may differ.

What was measured:
[1] = system: M-cholinoreceptors and conduction in parasympathetic ganglia; assay: Effect on M-cholinoreceptors and parasympathetic ganglia, n. vagus stimulation in cats; type: in vivo
Experimental: Experiments were carried out on narcotized cats (chloralose and urethane, intraperitoneally).
In experiments on five animals, the left nervus vagus was cut. Platinum electrodes were placed on the peripherial part to stimulate the nerve with pulses of 0.1 msec and an amplitude of 5 V. The nerve was stimulated every 10 seconds at a frequency of 30 Hz. The pulse rate was recorded (ECG) and the blood pressure in the femoral artery was measured with a mercury pressure gauge.

[2] = system: nervomuscular conduction, anterior tibial muscle; assay: Nervomuscular block in cats, indirect stimulation of anterior tibial muscle; type: in vivo
Experimental: The preparation was studied in acute experiments on cats, rabbits, mice and pigeons, in experiments on phrenico-diaphragm preparations of rats, and also on the straight muscle of a frog abdomen. The properties of Tercuronium were compared with those of α-tubocurarin and pancuronium.
(§1) Cats were narcotized (with chloralose, 50 mg per kg body weight, and urethane, 500 mg/kg, intraperitoneally) or decerebrated at the quadrigeminal bodies level. The lungs were ventilated artificially whenever necessary. Contractions of the anterior tibial muscle were recorded in isotonic concitions in response to electric stimulation of the peripheral part of n. peroneus with supramaximum pulses of 0.1 msec at a frequency of 0.1-100 Hz.

[3] = system: rabbits; assay: Chronic toxicity in rabbits; type: in vivo
Experimental: Tercuronium was given intravenously to four rabbits, once a day in the course of twelve days, in a dose that induced the head-drop symptom, i.e. 0.02 to 0.024 mcM/kg. Physiological solution was injected instead of Tercuronium to two other rabbits (controls). The animals were weighed daily, their rectal temperature taken, and behaviour observed. Clinical analysis of urine and blood was performed three times. At the end of the experiment, the rabbits were killed (phlebotomy). The liver, kidneys, heart, lungs, adrenal glands, spleen, as well as marginal ear vein, into which Tercuronium had been injected, were histologically studied.

[4] = system: respiration; assay: Inhibition of respiration in narcotized and decerebrated cats (and rabbits); type: in vivo
Source text: This developed simultaneously with the block of the nervomuscular conduction in the anterior tibial muscle. […] The same result was obtained in experiments on rabbits. The ratio of LD50 in experiments on rabbits and mice, as specified above, also provides data on the that Tercuronium produces on respiration.

[5] = Effect on sympathetic ganglia, third eyelid contraction in cats; type: in vivo; conditions: cat, in vivo, iv, read-out: ganglioblocking dose as multiple of myoparalytic dose
Experimental: (§2) Experiments were carried out on narcotized cats. A peripheral part of the sympathetic column on the neck was stimulated with electric pulses at 5 Hz. The duration of the stimulus was 1 msec, the amplitude 5 V. The contractions of the third eyelid (nictiating membrane) and the arterial (carotid) pressure were recorded with a mercury pressure gauge. We determined the intravenous dose of Tercuronium, α-tubocurarin and pancuronium that decreased the height of contraction of the third eyelid by 50 to 60 percent in conditions of prolonged stimulation of the sympathetic column.

[6] = system: sympathetic ganglia; assay: as above; type: in vivo
Experimental: as §2

[7] = system: straight muscles of the frog abdomen; assay: Isolated straight muscle of frog abdomen, antagonism of acetylcholine; design: species or system frog (Rana tempraria)
Source text: In experiments on isolated straight muscles of the frog abdomen (Rana tempraria) the concentration of Tercuronium, that weakened the action acetylcholine, was 2.0 ± 0.04 × × 10^-7 m/l.

[8] = system: nervomuscular conduction, anterior tibial muscle; assay: Neostigmin antagonism of nervomuscular block in cats; type: in vivo
Experimental: as §1
For example, even with a 5-fold dose of tercuronium, muscle contractility was restored already in 2 to 5 minutes following a single injection of neostigmin in a dose of 0.1 mg/kg, and in 15-20 minutes the recovery of the contactile function was complete.
In the case of pancuronium and α-tubocurarin, the restoration within these short periods of time could only be attained with 2-3 fold doses of these muscle relaxants. If the dose of pancuronium was increased 4 to 5 times, weak contractions of the muscle were observed not sooner than in 9 to 10 minutes and the contraction was, restored completely only 30 minutes after the injection of neostigmin (six experiments). The restoration of muscle contractility is delayed even longer in the case of α-tubocurarin.

[9] = system: arterial pressure; assay: Effect on arterial pressure in cats and rabbits; type: in vivo
Experimental: (§3) Experiments were carried out on narcotized cats and rabbits (50 mg/kg of chloralose and 500 mg/kg urethane, intraperitoneally) and also on cats decerebrated at the quadrigeminal level. The blood pressure in the carotid artery was recorded with a mercury pressure gauge. The preparations were injected intravenously.
(§4) When Tercuronium was given in a quantity ten times exceeding the myoparalytic dose (0.8 mcM/kg) an insignificant and transient reduction (10 to 20 mm Hg) of the blood pressure was observed. The animals (7 cats and 5 rabbits) tolerated injections of very large doses of Tercuronium, viz., 10-20 mcM/kg, which is 200 times higher than the myoparalytic dose. […] In all experiments, in 1 to 2 hours, the arterial pressure restored completely or was close to the initial level.

[10] = Effect on arterial pressure in cats and rabbits; type: in vivo; conditions: rabbit, in vivo, iv, artificial ventilation
Experimental: as §3, §4

[11] = system: patients; assay: Surgical operations, first series (maintenance of relaxation); type: in vivo, patients (human)
Experimental: We tried Tercuronium as a muscle relaxant in surgical operations on the abdominal and thoracic organs in 150 patients. The operations were carried out in conditions of intubation narcosis and artificial lung ventilation. Ether, fluorothane, nitrous oxide and barbiturates were used as anesthetics.
In the first series of observations (120 operations) Tercuronium was used as the main muscle relaxant for maintaining relaxation of the muscles. Tracheal intubation was carried out with muscle relaxation induced by dithilin-group agents. […] Complete muscle relaxation with the absence of active respiration continued on an average of 40 minutes. If, with the first signs of restoration of the muscle tone, we made another intravenous injection of Tercuronium in a dose constituting 1/3 to 1/2 of the initial one, complete relaxation continued for further 60 - 90 minutes.

[12] = 0.08 micromole per kg intravenous
[13] = 0.02 to 0.024 mcM/kg daily, twelve days

CC[N+](CC)(CC)c1ccc(-c2ccc(-c3ccc([N+](CC)(CC)CC)cc3)cc2)cc1 [Tercuronium, p,p"-bis-triethylammonio-n-terphenyl dibenzenesulphonate]
response of n. vagus to stimulation ([1]; 0.1 and 1.0 mcM/kg): the response of n. vagus to stimulation did not change | heart contractility without stimulation of n. vagus ([1]; 0.1 and 1.0 mcM/kg intravenous): heart contractility was not affected | effect on parasympathetic part of the vegetative nerve system ([1]; 20 times the myoparalytic dose): does not produce any effect on the parasympathetic part of the vegetative nerve system | bronchospasm or salivation ([1]; very large dose, other experiments on animals): no bronchospasm or salivation were observed | dependence of block on stimulation frequency [2]: more manifest with increasing frequency of pulse stimuli; also recorded: tetanization of the motor nerve at a frequency of 50 to 100 Hz produces a pessimal reaction in the muscle | influence of other agents on action [2]: lessened by the action of neostigmin, succinylcholine, decamethonium, and acetylcholine and strengthened by α-tubocurarin | mean duration of effect [2]: eight | block of nervomuscular conduction [2, 12]: 95-100% | time to block following injection [2, 12]: 40 to 60 s | time to complete restoration of muscle contractility ([2]; after injection): 10 ± 1.5 min | dose blocking nervomuscular conduction (95-100 percent) ([2]; intravenous, 0.1 Hz): 0.08 ± 0.002 micromole per kg | behaviour and rectal temperature [3, 13]: no appreciable changes | blood and urine analysis [3, 13]: did not find any pathological inclusions or changes | histological examination of organs [3, 13]: Nor did we discover any pathological changes | sensitivity of animals in the course of the experiment ([3]; 0.02 to 0.024 mcM/kg intravenous daily, twelve days): did not change in the course of the experiment | irritating action at site of administration ([3]; ear vein): no signs of irritating action | bronchospasm ([4]; 200-1000-fold dose, artificial ventilation, cats, same in rabbits): bronchospasm did not develop | inhibition of respiration by blocking doses, comparison ([4]; from LD50 to ED50 ratio): equally inhibit respiration | effect on respiration ([4]; narcotized and decerebrated cats): respiration was inhibited and stopped by a curare-like paralysis of the diaphragm; also recorded: respiration was restored simultaneously with the restoration of the muscle contraction | selectivity ratio [5]: 10 to 15 | arterial pressure at ganglioblocking dose [6]: the arterial pressure dropped as well | contractions produced in the muscle [7]: did not produce contractions in the muscle | time to complete recovery of contractile function after neostigmin ([8]; 5-fold dose, neostigmin 0.1 mg/kg): 15 to 20 min | strength of neostigmin antagonism compared with other relaxants ([8]; cats): stronger that toward α-tubocurarin or pancuronium; also recorded: stronger with Tercuronium than with pancuronium or α-tubocurarin | number of myoparalytic doses whose blocking effect is completely removed by neostigmin ([8]; neostigmin 0.1 mg/kg intravenous, within five minutes): five | restoration from block by neostigmin ([8]; neostigmin 0.05 to 0.1 mg/kg intravenous): fully and immediately restored | blood pressure at very large doses ([9]; 10-20 mcM/kg): quickly and sharply dropped and then slowly normalized | arterial pressure on doses that inhibit respiration ([9]; active ventilation of the lungs): asphyxial rise in the arterial pressure | effect on arterial pressure of myoparalytic (complete block) dose ([9]; artificial ventilation): the arterial pressure was not affected | reduction of blood pressure ([9]; ten times the myoparalytic dose (0.8 mcM/kg)): 10-20 mm Hg | effect on arterial pressure, comparison ([9]; versus the other two muscle relaxants): mildest effect on the arterial pressure | selectivity ratio ([10]; 10-20 mcM/kg, read-out: tolerated dose as multiple of myoparalytic dose): 200 | MTD ([10]; cats and rabbits, read-out: tolerated dose): 10 to 20 µmol/kg | arterial pressure and frequency of heart contractions ([11]; 0.12 - 0.15 mg/kg): No changes in arterial pressure ar frequency of heart contractions, that could be attributed to the injection of Tercuronium, were observed | duration of complete muscle relaxation with absence of active respiration ([11]; 0.12 - 0.15 mg/kg intravenous, average): 40 min | electromyographic character of action ([11]; electromyographic analysis): nondepolarizing muscle relaxant | postoperative complications ([11]; postoperative period): did not observe any case of insufficient efficacy of proserpin, muscular atomia, or insufficiency of active respiration, or recurarization | restoration of active respiration by proserpin ([11]; proserpin 2.5 mg at end of operation): always resulted in quick (within a few minutes) restoration of active respiration in full volume
